# Columns and labels:
# Assay in all cases: Greenhouse pot test, postemergent spray, visual control rating converted to percent control
# Format in all cases: in vivo
# crabgrass = conditions: for Control (1-9) Crabgrass: scale 1=no control, 9=death of plant
# Experimental: (§1) Pots of crabgrass, dandelion, white clover, and plantain grown in greenhouse soiless growth media were sprayed with a greenhouse pot sprayer at 43.46 gallons of spray solution/acre and allowed to stand in the greenhouse. Visual observation of the effects made by the herbicidal compositions on the plants in the test pots was recorded for control of crabgrass, dandelion, clover and plantain at 24 hours after treatment (HAT), 48 hours after treatment (HAT), 72 hours after treatment (HAT), 7 days after treatment (DAT), 14 days after treatment (DAT) and 21 days after treatment (DAT). A control rating scale of 1 to 9 was used to record the visual observation of the effect of the herbicidal composition on the plants over the time period of the tests. 1=no control, and 9=death of plant, with intervening numbers representing successive degrees of observed effectiveness of the herbicidal composition over time. The 1-9 control rating scale was converted to percent control in the test data charts that follow.
# (§2) The test protocol of S. R. Colby as set out in his article entitled “Calculating Synergistic and Antagonistic Responses of Herbicide Compositions,” received for publication Apr. 11, 1966, Contribution No. 3796 and Scientific Article No. 1271 of the Maryland Agricultural Experiment Station, Department pf Agronomy, University of Maryland was followed to evaluate the synergistic properties of the combination of quinclorac plus a herbicidal protox inhibitor, and a combination of quinclorac, plus a herbicidal protox inhibitor plus a herbicidal auxinic agent as compared with the individual herbicides, using Colby's formulas E=X+Y−XY/100 for a two herbicide combination, where E=the expected percent of inhibition of growth by herbicides, X=the percent inhibition of growth by herbicide A at p lb/A, and Y=the percent inhibition of growth by herbicide B at q lb/A, for a given combination of two herbicides. Colby's formula E=X+Y+Z−(XY+XZ+YZ)/100+XYZ/10,000, was used for the three-way herbicide combination evaluation, where E, X and Y are the same as in the two herbicide formula and Z=the percent inhibition of growth by the third herbicide.
# white clover = conditions: for Control (1-9) Clover: scale 1=no control, 9=death of plant
# Experimental: as §1, §2
# plantain = conditions: for Control (1-9) Plantain: scale 1=no control, 9=death of plant
# Experimental: as §1, §2
# dandelion = conditions: for Control (1-9) Dandelion: scale 1=no control, 9=death of plant
# Experimental: as §1, §2
structure (smiles),measurement,setting,value
Cc1cc(Cl)ccc1OCC(=O)OCCCCCC(C)C [MCPA IOE @ 1.10 lbs/A],% Control Crabgrass,"crabgrass; Test 3, 7 DAT",11.1%
same,Control (1-9) Crabgrass,"crabgrass; Test 3, 7 DAT",1
same,% Control Crabgrass,"crabgrass; Test 3, 14 DAT",22.2%
same,Control (1-9) Crabgrass,"crabgrass; Test 3, 14 DAT",2
same,% Control Crabgrass,"crabgrass; Test 3, 21 DAT",44.4%
same,Control (1-9) Crabgrass,"crabgrass; Test 3, 21 DAT",4
same,% Control Crabgrass,"crabgrass; Test 3, 24 HAT",11.1%
same,Control (1-9) Crabgrass,"crabgrass; Test 3, 24 HAT",1
same,% Control Crabgrass,"crabgrass; Test 3, 72 HAT",11.1%
same,Control (1-9) Crabgrass,"crabgrass; Test 3, 72 HAT",1
same,% Control Crabgrass,"crabgrass; Test 4, 24 HAT",11.1%
same,Control (1-9) Crabgrass,"crabgrass; Test 4, 24 HAT",1
same,% Control Crabgrass,"crabgrass; Test 4, 72 HAT",11.1%
same,Control (1-9) Crabgrass,"crabgrass; Test 4, 72 HAT",1
same,% Control Clover,"white clover; Test 3, 7 DAT",66.7%
same,Control (1-9) Clover,"white clover; Test 3, 7 DAT",6
same,% Control Clover,"white clover; Test 3, 14 DAT",88.9%
same,Control (1-9) Clover,"white clover; Test 3, 14 DAT",8
same,% Control Clover,"white clover; Test 3, 21 DAT",100.0%
same,Control (1-9) Clover,"white clover; Test 3, 21 DAT",9
same,% Control Clover,"white clover; Test 3, 24 HAT",44.4%
same,Control (1-9) Clover,"white clover; Test 3, 24 HAT",4
same,% Control Clover,"white clover; Test 3, 72 HAT",44.4%
same,Control (1-9) Clover,"white clover; Test 3, 72 HAT",4
same,% Control Clover,"white clover; Test 4, 24 HAT",44.4%
same,Control (1-9) Clover,"white clover; Test 4, 24 HAT",4
same,% Control Clover,"white clover; Test 4, 72 HAT",55.6%
same,Control (1-9) Clover,"white clover; Test 4, 72 HAT",5
same,% Control Plantain,"plantain; Test 3, 7 DAT",66.7%
same,Control (1-9) Plantain,"plantain; Test 3, 7 DAT",6
same,% Control Plantain,"plantain; Test 3, 14 DAT",77.8%
same,Control (1-9) Plantain,"plantain; Test 3, 14 DAT",7
same,% Control Plantain,"plantain; Test 3, 21 DAT",77.8%
same,Control (1-9) Plantain,"plantain; Test 3, 21 DAT",7
same,% Control Plantain,"plantain; Test 3, 24 HAT",44.4%
same,Control (1-9) Plantain,"plantain; Test 3, 24 HAT",4
same,% Control Plantain,"plantain; Test 3, 72 HAT",44.4%
same,Control (1-9) Plantain,"plantain; Test 3, 72 HAT",4
same,% Control Plantain,"plantain; Test 4, 24 HAT",22.2%
same,Control (1-9) Plantain,"plantain; Test 4, 24 HAT",2
same,% Control Plantain,"plantain; Test 4, 72 HAT",44.4%
same,Control (1-9) Plantain,"plantain; Test 4, 72 HAT",4
same,% Control Dandelion,"dandelion; Test 3, 7 DAT",66.7%
same,Control (1-9) Dandelion,"dandelion; Test 3, 7 DAT",6
same,% Control Dandelion,"dandelion; Test 3, 14 DAT",77.8%
same,Control (1-9) Dandelion,"dandelion; Test 3, 14 DAT",7
same,% Control Dandelion,"dandelion; Test 3, 21 DAT",88.9%
same,Control (1-9) Dandelion,"dandelion; Test 3, 21 DAT",8
same,% Control Dandelion,"dandelion; Test 3, 24 HAT",33.3%
same,Control (1-9) Dandelion,"dandelion; Test 3, 24 HAT",3
same,% Control Dandelion,"dandelion; Test 3, 72 HAT",55.6%
same,Control (1-9) Dandelion,"dandelion; Test 3, 72 HAT",5
same,% Control Dandelion,"dandelion; Test 4, 24 HAT",33.3%
same,Control (1-9) Dandelion,"dandelion; Test 4, 24 HAT",3
same,% Control Dandelion,"dandelion; Test 4, 72 HAT",55.6%
same,Control (1-9) Dandelion,"dandelion; Test 4, 72 HAT",5

# From US20040266623A1, “SYNERGISTIC QUINCLORAC HERBICIDAL COMPOSITIONS” (priority 2003, published 2004)
